Measurements reported in ChEMBL document CHEMBL1143902, “Design and synthesis of a pyrido[2,3-d]pyrimidin-5-one class of anti-inflammatory FMS inhibitors” (Bioorg Med Chem Lett, 2008).

Columns and labels:
Macrophage = experiment: Inhibition of CSF1-induced proliferation of mouse bone marrow derived macrophages
[1] = molecular target: T1, Macrophage colony-stimulating factor 1 receptor (Homo sapiens, UniProt P07333)
Description: Inhibition of ATP-induced CSF1R autophosphorylation

[2] = Metabolic stability in human liver microsomes after 10 mins; type: ADME, Microsome; settings: read-out: Stability
[3] = Metabolic stability in rat liver microsomes after 10 mins; type: ADME, Microsome; settings: read-out: Stability
[4] = molecular target: T1, Macrophage colony-stimulating factor 1 receptor; experiment: Inhibition of CSF1R
[5] = molecular target: Adenosine receptor A2a (Homo sapiens) (UniProt P29274); experiment: Inhibition of human A2A receptor at 10 uM
[6] = Volume of distribution in rat at 2 mg/kg, iv; type: ADME, organism-based; set-up: dose 2 mg/kg, route intravenous; settings: in vivo
[7] = Bioavailability in rat 10 mg/kg, po; type: ADME, organism-based; settings: in vivo
Mus musculus [8] = experiment: Inhibition of LPS-induced TNFalpha production in Swiss Webster mouse plasma at 20 mg/kg, ip after 90 mins; type: functional; set-up: scale not given: the % may be the effect or the level left; settings: route intraperitoneal
[9] = molecular target: T2, Adenosine receptor A3 (Homo sapiens) (UniProt P0DMS8); experiment: Inhibition of human A3 receptor at 10 uM
T2 sequence (whole entry): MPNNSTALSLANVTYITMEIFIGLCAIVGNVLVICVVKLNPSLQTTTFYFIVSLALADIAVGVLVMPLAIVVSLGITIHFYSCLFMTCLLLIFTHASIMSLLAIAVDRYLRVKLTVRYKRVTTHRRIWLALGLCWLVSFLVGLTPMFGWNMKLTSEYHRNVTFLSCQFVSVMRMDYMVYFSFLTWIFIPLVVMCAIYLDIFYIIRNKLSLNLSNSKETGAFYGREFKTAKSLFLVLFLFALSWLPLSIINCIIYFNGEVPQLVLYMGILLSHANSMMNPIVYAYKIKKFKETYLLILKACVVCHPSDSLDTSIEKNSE

[10] = molecular target: High affinity nerve growth factor receptor (Homo sapiens, UniProt P04629); experiment: Inhibition of TrkA
[11] = Inhibition of IRKbeta
[12] = molecular target: T3, Receptor-type tyrosine-protein kinase FLT3 (Homo sapiens, UniProt P36888); experiment: Inhibition of FLT3
T3 sequence (P36888 whole entry): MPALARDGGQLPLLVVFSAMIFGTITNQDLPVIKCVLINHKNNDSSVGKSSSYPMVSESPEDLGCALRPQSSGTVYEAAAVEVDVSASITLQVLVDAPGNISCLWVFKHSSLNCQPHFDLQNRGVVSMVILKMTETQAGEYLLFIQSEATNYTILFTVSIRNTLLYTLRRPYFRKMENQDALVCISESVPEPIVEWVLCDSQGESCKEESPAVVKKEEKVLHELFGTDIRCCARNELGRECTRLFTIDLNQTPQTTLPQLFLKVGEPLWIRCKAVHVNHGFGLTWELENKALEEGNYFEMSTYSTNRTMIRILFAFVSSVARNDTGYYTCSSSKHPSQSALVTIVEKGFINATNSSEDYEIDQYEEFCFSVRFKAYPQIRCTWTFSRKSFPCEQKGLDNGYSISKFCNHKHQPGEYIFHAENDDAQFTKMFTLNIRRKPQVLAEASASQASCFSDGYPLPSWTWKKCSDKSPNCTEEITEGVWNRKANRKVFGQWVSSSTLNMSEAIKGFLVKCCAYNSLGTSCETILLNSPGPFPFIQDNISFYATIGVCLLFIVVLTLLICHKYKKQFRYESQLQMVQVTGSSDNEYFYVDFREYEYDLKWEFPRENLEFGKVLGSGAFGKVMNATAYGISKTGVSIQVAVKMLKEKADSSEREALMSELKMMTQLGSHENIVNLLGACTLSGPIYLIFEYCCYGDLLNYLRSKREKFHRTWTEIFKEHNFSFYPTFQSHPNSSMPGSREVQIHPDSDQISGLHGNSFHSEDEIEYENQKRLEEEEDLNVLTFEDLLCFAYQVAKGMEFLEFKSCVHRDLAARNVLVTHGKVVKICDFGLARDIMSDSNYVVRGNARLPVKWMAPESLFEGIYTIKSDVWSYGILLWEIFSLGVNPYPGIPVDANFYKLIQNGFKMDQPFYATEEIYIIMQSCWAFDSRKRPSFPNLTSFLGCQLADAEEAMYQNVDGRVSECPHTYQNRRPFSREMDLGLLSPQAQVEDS

Mus musculus [13] = experiment: Inhibition of LPS-induced TNFalpha production in Swiss Webster mouse plasma at 50 mg/kg, ip after 90 mins; type: functional; set-up: scale not given: the % may be the effect or the level left; settings: route intraperitoneal
[14] = Clearance in rat at 2 mg/kg, iv; type: ADME, organism-based; set-up: dose 2 mg/kg, route intravenous; settings: in vivo
[15] = molecular target: Proto-oncogene tyrosine-protein kinase Src (Homo sapiens, UniProt P12931); experiment: Inhibition of Src
[16] = molecular target: Mast/stem cell growth factor receptor Kit (Homo sapiens, UniProt P10721); experiment: Inhibition of KIT
[17] = molecular target: Platelet-derived growth factor receptor beta (Homo sapiens, UniProt P09619); experiment: Inhibition of PDGFRbeta
[18] = molecular target: T4, Tyrosine-protein kinase receptor UFO (Homo sapiens, UniProt P30530); experiment: Inhibition of Axl
T4 sequence (P30530 whole entry): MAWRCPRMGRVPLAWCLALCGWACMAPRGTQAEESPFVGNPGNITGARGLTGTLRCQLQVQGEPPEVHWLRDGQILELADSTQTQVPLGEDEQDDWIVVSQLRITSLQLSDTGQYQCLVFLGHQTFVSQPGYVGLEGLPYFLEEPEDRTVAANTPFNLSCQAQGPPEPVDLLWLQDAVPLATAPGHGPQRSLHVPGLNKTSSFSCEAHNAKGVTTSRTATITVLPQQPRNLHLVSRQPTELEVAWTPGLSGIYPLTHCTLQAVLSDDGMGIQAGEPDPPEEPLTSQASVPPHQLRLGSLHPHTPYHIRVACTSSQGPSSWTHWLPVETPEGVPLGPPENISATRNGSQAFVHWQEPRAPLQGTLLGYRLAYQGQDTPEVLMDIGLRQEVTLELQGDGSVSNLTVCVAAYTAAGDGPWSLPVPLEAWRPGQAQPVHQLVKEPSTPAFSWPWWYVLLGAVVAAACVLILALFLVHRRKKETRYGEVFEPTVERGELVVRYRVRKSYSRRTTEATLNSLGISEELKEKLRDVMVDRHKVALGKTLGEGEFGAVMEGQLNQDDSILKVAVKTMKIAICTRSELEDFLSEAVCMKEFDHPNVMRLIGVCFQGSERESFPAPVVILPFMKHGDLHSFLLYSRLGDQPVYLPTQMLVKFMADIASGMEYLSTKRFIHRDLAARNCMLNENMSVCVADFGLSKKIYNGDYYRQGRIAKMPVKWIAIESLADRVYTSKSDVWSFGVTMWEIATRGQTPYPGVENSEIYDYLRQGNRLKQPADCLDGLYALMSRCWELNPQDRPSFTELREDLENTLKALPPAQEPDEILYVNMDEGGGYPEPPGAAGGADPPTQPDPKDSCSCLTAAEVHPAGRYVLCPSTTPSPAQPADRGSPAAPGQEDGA

[19] = molecular target: T2, Adenosine receptor A3 (Homo sapiens); experiment: Inhibition of human A3 receptor at 5 uM

T1 sequence (P07333 whole entry): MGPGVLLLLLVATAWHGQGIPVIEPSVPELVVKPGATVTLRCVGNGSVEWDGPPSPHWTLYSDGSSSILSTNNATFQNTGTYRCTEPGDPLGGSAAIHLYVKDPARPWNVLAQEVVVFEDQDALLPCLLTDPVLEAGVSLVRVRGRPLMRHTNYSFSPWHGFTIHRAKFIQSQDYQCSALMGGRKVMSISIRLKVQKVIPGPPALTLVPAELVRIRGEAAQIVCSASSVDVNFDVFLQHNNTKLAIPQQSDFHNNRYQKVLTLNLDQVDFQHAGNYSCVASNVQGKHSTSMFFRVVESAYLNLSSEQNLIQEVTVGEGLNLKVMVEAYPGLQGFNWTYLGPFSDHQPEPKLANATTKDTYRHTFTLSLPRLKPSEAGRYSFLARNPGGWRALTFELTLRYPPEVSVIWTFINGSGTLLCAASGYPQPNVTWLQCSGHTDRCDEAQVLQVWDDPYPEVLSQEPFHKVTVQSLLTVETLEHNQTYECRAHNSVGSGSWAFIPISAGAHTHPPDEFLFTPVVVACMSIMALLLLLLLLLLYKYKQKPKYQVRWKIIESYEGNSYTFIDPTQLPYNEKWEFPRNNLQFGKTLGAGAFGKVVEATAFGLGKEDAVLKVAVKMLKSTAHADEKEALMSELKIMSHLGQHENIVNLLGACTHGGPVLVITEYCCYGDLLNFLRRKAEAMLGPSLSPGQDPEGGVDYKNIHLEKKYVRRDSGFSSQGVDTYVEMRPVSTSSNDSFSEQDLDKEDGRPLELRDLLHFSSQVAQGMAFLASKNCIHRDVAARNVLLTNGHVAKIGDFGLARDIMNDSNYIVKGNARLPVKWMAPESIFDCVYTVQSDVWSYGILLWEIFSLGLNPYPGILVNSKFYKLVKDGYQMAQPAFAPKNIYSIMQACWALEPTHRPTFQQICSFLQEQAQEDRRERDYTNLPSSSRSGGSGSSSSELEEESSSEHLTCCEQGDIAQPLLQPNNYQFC
Chain of High affinity nerve growth factor receptor (P04629 whole entry): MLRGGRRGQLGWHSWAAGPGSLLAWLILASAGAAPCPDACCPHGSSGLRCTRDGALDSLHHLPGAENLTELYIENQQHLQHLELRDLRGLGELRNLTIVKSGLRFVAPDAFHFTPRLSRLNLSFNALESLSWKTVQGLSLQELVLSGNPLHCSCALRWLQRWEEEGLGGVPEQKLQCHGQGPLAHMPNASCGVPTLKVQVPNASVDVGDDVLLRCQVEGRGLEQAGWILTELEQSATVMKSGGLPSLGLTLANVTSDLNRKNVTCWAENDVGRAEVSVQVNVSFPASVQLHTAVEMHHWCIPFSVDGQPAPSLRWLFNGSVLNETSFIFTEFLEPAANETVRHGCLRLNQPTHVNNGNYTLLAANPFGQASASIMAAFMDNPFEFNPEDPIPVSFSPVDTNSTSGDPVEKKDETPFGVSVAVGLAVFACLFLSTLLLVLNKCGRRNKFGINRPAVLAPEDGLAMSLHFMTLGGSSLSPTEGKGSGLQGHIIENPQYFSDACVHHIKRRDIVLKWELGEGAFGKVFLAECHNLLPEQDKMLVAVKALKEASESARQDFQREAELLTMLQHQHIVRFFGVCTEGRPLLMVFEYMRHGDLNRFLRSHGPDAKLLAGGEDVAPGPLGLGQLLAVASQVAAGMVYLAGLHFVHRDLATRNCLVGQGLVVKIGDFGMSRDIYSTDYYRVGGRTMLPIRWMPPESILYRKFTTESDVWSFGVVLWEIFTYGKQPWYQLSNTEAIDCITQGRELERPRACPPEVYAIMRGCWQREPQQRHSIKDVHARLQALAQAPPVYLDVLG
Chain of Proto-oncogene tyrosine-protein kinase Src (P12931 2-536 limits assumed): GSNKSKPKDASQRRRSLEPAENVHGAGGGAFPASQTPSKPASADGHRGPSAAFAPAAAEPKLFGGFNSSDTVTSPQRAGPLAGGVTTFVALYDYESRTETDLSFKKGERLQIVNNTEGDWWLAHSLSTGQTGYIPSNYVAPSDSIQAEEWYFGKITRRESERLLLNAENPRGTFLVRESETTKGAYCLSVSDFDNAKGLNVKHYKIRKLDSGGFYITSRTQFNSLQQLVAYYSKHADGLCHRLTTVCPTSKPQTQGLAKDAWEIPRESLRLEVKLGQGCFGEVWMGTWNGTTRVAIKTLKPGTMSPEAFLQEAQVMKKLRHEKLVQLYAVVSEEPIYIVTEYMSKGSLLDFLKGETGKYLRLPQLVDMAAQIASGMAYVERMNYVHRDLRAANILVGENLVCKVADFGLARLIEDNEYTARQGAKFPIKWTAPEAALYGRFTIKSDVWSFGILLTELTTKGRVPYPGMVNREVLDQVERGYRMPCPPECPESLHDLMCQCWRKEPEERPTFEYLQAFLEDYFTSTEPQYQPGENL
Chain of Mast/stem cell growth factor receptor Kit (P10721 whole entry): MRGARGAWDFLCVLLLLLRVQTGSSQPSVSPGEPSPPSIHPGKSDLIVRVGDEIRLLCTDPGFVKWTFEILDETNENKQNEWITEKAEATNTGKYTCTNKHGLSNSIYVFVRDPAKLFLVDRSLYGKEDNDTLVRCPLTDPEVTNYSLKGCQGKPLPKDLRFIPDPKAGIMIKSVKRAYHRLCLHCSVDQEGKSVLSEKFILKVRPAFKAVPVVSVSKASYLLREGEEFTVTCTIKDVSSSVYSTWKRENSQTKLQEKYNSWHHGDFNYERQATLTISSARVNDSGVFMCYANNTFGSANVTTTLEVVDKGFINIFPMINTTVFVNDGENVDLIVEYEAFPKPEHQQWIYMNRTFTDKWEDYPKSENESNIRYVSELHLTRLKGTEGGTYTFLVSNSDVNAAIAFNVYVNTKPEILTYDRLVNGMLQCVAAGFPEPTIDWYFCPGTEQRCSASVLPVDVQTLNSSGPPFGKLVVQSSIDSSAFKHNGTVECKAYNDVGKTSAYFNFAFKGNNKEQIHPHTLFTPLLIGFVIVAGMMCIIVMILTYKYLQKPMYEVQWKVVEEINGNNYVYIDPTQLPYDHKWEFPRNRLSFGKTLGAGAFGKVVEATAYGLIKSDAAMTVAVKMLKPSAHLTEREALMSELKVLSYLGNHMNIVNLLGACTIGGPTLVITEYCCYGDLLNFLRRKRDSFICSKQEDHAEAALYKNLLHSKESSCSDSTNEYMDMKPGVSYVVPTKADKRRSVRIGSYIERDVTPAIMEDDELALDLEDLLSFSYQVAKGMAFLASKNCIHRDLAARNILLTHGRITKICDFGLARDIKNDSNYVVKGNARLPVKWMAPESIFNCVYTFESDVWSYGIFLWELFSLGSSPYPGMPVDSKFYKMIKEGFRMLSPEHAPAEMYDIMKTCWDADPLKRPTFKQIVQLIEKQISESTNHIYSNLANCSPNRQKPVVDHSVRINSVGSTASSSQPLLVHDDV
Chain of Platelet-derived growth factor receptor beta (P09619 whole entry): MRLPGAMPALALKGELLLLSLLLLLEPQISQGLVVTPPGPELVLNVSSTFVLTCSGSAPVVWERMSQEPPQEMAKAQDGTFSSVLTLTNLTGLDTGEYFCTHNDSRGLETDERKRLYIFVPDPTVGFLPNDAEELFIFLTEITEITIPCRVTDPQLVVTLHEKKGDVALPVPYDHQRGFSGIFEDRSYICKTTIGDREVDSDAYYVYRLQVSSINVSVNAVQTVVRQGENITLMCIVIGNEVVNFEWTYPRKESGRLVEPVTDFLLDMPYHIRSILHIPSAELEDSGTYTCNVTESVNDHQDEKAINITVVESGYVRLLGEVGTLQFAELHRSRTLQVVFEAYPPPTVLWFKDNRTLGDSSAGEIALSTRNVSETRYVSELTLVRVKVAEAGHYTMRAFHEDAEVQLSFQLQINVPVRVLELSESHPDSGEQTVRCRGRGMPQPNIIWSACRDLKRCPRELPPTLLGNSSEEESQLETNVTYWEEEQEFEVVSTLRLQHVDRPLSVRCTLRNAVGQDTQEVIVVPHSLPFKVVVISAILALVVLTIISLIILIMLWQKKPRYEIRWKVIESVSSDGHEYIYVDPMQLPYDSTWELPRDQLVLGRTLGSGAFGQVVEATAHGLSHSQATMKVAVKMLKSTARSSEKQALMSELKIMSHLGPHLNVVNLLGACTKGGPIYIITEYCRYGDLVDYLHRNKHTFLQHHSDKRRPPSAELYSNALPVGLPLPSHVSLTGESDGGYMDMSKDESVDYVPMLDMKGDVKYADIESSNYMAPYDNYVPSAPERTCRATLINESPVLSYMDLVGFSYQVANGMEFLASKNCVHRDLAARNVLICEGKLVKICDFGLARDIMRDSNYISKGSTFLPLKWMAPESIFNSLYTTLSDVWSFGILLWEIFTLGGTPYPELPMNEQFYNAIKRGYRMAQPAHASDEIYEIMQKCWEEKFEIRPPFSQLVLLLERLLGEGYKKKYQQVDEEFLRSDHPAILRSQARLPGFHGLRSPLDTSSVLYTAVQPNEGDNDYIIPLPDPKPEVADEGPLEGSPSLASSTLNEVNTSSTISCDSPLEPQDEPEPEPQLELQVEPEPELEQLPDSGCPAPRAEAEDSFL
Chain of Adenosine receptor A2a (Homo sapiens) (P29274 whole entry): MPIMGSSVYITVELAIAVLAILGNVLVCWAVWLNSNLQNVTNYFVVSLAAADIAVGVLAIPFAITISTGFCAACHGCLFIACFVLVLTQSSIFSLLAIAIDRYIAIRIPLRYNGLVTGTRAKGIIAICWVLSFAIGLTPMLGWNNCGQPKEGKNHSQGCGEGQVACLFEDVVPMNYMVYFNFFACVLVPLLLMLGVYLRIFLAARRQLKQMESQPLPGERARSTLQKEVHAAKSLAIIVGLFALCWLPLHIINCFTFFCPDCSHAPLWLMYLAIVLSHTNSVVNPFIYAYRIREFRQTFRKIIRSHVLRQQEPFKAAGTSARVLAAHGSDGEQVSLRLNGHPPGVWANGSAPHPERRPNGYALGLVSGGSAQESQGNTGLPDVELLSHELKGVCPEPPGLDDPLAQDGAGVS

CN1CCN(c2cccc(Nc3ncc4c(=O)c(C(N)=O)cn(-c5ccc6c(c5)CCC6)c4n3)c2)CC1
IC50 (Macrophage): 6 nM

CCOC(=O)c1cn(-c2ccc3c(c2)CCC3)c2nc(Nc3ccc(N4CCN(C)CC4)cc3)ncc2c1=O
IC50 (Macrophage): 470 nM
IC50 [1]: 250 nM

CN(C)Cc1ccc(Nc2ncc3c(=O)c(C(N)=O)cn(-c4ccc5c(c4)CCC5)c3n2)cc1
remaining at 10 min [2]: 35%
IC50 (Macrophage): 4 nM
remaining at 10 min [3]: 38%

NC(=O)c1cn(-c2ccc3c(c2)CCC3)c2nc(Nc3ccccc3)ncc2c1=O
IC50 [1]: 280 nM

NC(=O)c1cn(-c2ccc3c(c2)CCC3)c2nc(Nc3cccc(C(=O)N4CCCCC4)c3)ncc2c1=O
IC50 (Macrophage): 14 nM

NC(=O)c1cn(-c2ccc3c(c2)CCC3)c2nc(Nc3ccc(N4CCNCC4)cc3)ncc2c1=O
IC50 (Macrophage): 4 nM

CCOC(=O)c1nc2cnc(Nc3ccccc3)nc2n(-c2ccccc2)c1=O [PTERIDINONE]
IC50 [4]: 180 nM

CN1CCN(CCc2ccc(Nc3ncc4c(=O)c(C(N)=O)cn(-c5ccc6c(c5)CCC6)c4n3)cc2)CC1
remaining at 10 min [2]: 96%
IC50 (Macrophage): 9 nM
remaining at 10 min [3]: 84%

NC(=O)c1cn(-c2ccc3c(c2)CCC3)c2nc(Nc3ccc(C4CCNCC4)cc3)ncc2c1=O
IC50 (Macrophage): 51 nM

CN1CCN(Cc2ccc(Nc3ncc4c(=O)c(C(N)=O)cn(-c5ccc6c(c5)CCC6)c4n3)cc2)CC1
inhibition [5]: 58%
Vd [6]: 26.5 L/kg
bioavailability [7]: 4%
Activity (Mus musculus [8]): 81%
inhibition [9]: 60%
IC50 [10]: 310 nM
IC50 [11]: > 2000 nM
IC50 [12]: 1 nM
remaining at 10 min [2]: 74%
IC50 (Macrophage): 11 nM
Activity (Mus musculus [13]): 87%
remaining at 10 min [3]: 54%
clearance [14]: 29 mL/min/kg
IC50 [15]: 1500 nM
IC50 [16]: 28 nM
IC50 [17]: > 2000 nM
IC50 [18]: > 500 nM

CC1CN(c2ccc(Nc3ncc4c(=O)c(C(N)=O)cn(-c5ccc6c(c5)CCC6)c4n3)cc2)CC(C)N1 (centres undefined)
IC50 (Macrophage): 3 nM

NC(=O)c1cn(-c2ccc3c(c2)CCC3)c2nc(Nc3ccc(CCN4CCOCC4)cc3)ncc2c1=O
remaining at 10 min [2]: 58%
IC50 (Macrophage): 8 nM
IC50 [1]: 8 nM
remaining at 10 min [3]: 83%

NC(=O)c1cn(-c2ccc3c(c2)CCC3)c2nc(Nc3ccc(C[C@H]4COC(=O)N4)cc3)ncc2c1=O
IC50 (Macrophage): 90 nM

NC(=O)c1cn(-c2ccc3c(c2)CCC3)c2nc(Nc3ccc(CN4CCOCC4)cc3)ncc2c1=O
remaining at 10 min [2]: 2.5%
IC50 (Macrophage): 27 nM
IC50 [1]: 22 nM
remaining at 10 min [3]: 9.7%

CN(C)CCc1ccc(Nc2ncc3c(=O)c(C(N)=O)cn(-c4ccc5c(c4)CCC5)c3n2)cc1
remaining at 10 min [2]: 88%
IC50 (Macrophage): 16 nM
remaining at 10 min [3]: 65%

CN1CCN(c2ccc(Nc3ncc4c(=O)c(C(N)=O)cn(-c5ccc6c(c5)CCC6)c4n3)cc2)CC1
Vd [6]: 18.7 L/kg
IC50 [10]: 200 nM
IC50 [4]: 13 nM
IC50 [11]: > 1000 nM
IC50 [12]: 3 nM
remaining at 10 min [2]: 80.5%
IC50 (Macrophage): 16 nM
inhibition [19]: 55%
remaining at 10 min [3]: 87.3%
clearance [14]: 133 mL/min/kg
IC50 [15]: 1000 nM
IC50 [16]: 56 nM
IC50 [17]: > 1000 nM
IC50 [18]: > 300 nM

CN1CCN(CCCNc2ncc3c(=O)c(C(N)=O)cn(-c4ccc5c(c4)CCC5)c3n2)CC1
IC50 [1]: 1800 nM
